Residues, ends and D or L forms follow the SMILES beside them.
Assays:
Format in all cases: cell-based, E. coli
[1] = target: T1, WT-YdgR (Escherichia coli, UniProt P77304); assay: cell-based; conditions: IC50 (inhibition of β-Ala-Lys(AMCA) uptake)
T1 construct: expressed in transfected cells; host or cells: E. coli BL21(DE3)pLysS, pTTQ18-ydgR, IPTG-induced
T1 sequence (P77304 1-500): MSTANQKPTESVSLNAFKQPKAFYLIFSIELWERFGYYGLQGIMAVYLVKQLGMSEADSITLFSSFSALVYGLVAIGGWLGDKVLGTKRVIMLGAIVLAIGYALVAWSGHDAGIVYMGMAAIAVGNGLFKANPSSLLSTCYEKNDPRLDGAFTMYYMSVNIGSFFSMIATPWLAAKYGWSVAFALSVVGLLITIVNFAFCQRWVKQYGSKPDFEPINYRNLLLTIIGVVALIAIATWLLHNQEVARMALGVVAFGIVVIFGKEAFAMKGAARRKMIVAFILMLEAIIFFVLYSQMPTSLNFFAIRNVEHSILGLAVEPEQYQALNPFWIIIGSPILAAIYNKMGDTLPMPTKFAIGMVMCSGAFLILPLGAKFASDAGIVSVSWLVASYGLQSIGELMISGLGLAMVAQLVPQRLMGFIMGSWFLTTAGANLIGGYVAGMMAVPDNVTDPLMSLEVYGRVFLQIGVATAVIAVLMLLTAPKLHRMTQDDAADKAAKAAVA
Experimental: Plasmids were transformed into E. coli BL21(DE3)pLysS cells by heat shock and transformants were selected on agar plates containing 100 µg/mL ampicillin and 34 µg/mL chloramphenicol. Single transformants were inoculated into 2 mL LB-media with antibiotics as above and grown overnight. The cultures were diluted 1∶50 in 5 mL LB-media with antibiotics as above, and at an OD600 of 0.5–0.8 protein expression was induced by the addition of 1 mM isopropyl β-D-1-thiogalactopyranoside (IPTG). […]
(§1) Uptake assays were performed as previously described, [20]. In a final assay volume of 100 µL; 0.2 mM β-Ala-Lys-N-7-amino-4-methylcoumarin-3-acetic acid (β-Ala-Lys(AMCA), Biotrend) (10 µL) and various concentrations of ligands (purchased from Bachem or Sigma-Aldrich) or uptake buffer (50 µL) were incubated with bacterial cell suspension (OD600 = 10, 40 µL) at 37°C. After 5 min, the uptake was stopped by addition of 500 µL ice-cold uptake buffer followed by immediate centrifugation and washing twice in ice-cold uptake buffer. Finally the cell pellet was resuspended in 100 µL uptake buffer, and the uptake was quantified by fluorescence measurements (excitation at 340 nm and emission at 460 nm) on a Safire 2 fluorimeter. Non-specific uptake was measured as described above on IPTG-induced E. coli BL21(DE3)pLysS cells harboring the empty pTTQ18 vector. All uptake assay experiments were reproduced at least three times independently and data analyses were performed using GraphPad Prism ver. 5.

[2] = target: T2, YjdL Tyr58Phe (Escherichia coli, UniProt P39276, Y58F); assay: β-Ala-Lys(AMCA) uptake and inhibition assay, YjdL Tyr58Phe; conditions: for IC50: 0.5 mM β-Ala-Lys(AMCA), 15 min incubation, pH 6.5, ±SEM, n≥3, read-out: IC50 (inhibition of β-Ala-Lys(AMCA) uptake), Tyr58Phe b
T2 construct: expressed in transfected cells; host or cells: E. coli BL21(DE3)pLysS, pTTQ18-yjdL mutant (QuikChange)
T2 sequence (P39276 1-485 Y58F): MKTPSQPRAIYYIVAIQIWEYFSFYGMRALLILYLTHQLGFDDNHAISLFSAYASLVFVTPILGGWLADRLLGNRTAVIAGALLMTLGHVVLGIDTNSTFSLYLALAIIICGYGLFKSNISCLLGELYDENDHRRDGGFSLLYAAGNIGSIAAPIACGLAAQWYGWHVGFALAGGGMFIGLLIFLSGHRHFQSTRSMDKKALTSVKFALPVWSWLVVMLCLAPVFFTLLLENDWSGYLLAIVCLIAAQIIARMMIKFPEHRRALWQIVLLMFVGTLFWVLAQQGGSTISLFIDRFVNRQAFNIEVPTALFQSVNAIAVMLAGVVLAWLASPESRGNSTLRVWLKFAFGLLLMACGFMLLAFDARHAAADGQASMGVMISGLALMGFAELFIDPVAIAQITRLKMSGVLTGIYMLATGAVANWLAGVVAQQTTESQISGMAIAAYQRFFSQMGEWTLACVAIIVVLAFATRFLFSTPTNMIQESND
Experimental: (§2) Plasmids were transformed into E. coli BL21(DE3)pLysS cells by heat shock and transformants were selected on agar plates containing 100 µg/mL ampicillin and 34 µg/mL chloramphenicol. Single transformants were inoculated into 2 mL LB-media with antibiotics as above and grown overnight. The cultures were diluted 1∶50 in 5 mL LB-media with antibiotics as above, and at an OD600 of 0.5–0.8 protein expression was induced by the addition of 1 mM isopropyl β-D-1-thiogalactopyranoside (IPTG). The cells were harvested after three hours of induction by centrifugation and resuspended in uptake buffer (50 mM MES pH 6.5, 140 mM NaCl, 5.4 mM KCl, 1.8 mM CaCl2, 0.8 mM MgSO4, and 5 mM glucose).
as §1

[3] = target: T3, YdgR Tyr71Phe (Escherichia coli, UniProt P77304, Y71F); assay: β-Ala-Lys(AMCA) uptake and inhibition assay, YdgR Tyr71Phe
T3 construct: host or cells: E. coli BL21(DE3)pLysS
T3 sequence (P77304 whole entry Y71F): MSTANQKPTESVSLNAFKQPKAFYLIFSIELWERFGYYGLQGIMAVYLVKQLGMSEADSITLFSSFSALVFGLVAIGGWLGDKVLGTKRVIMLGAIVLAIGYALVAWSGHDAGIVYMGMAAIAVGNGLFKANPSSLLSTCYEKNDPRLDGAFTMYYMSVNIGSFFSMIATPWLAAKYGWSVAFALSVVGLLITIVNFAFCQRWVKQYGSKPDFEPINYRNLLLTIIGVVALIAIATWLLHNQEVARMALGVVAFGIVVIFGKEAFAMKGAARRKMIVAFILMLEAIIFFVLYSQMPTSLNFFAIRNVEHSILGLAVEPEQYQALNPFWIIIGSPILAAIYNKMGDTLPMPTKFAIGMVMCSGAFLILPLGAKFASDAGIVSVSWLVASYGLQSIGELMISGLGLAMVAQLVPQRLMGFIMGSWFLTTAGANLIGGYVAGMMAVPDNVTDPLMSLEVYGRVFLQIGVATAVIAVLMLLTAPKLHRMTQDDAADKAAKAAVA
Experimental: as §2
as §1, with “After 5 min, the uptake was stopped by addition of 500 µL ice-cold uptake buffer followed by immediate centrifugation and washing twice in ice-cold uptake buffer.” left out, “All uptake assay experiments were reproduced at least three times independently and data analyses were performed using GraphPad Prism ver. 5.” left out

[4] = target: T4, YdgR Tyr292Phe (Escherichia coli, UniProt P77304, Y292F); assay: β-Ala-Lys(AMCA) uptake inhibition assay, YdgR Tyr292Phe; conditions: 0.2 mM β-Ala-Lys(AMCA), 5 min incubation, pH 6.5; ±SEM, n≥3
T4 construct: host or cells: E. coli BL21(DE3)pLysS
T4 sequence (P77304 whole entry Y292F): as the sequence (P77304 whole entry Y71F) above, with F71Y, Y292F counted along it
Experimental: as §2
as §1, with “After 5 min, the uptake was stopped by addition of 500 µL ice-cold uptake buffer followed by immediate centrifugation and washing twice in ice-cold uptake buffer.” left out, “All uptake assay experiments were reproduced at least three times independently and data analyses were performed using GraphPad Prism ver. 5.” left out

[5] = target: T5, YdgR Tyr292Ala (Escherichia coli, UniProt P77304, Y292A); assay: β-Ala-Lys(AMCA) uptake and inhibition assay, YdgR Tyr292Ala
T5 construct: host or cells: E. coli BL21(DE3)pLysS
T5 sequence (P77304 whole entry Y292A): as the sequence (P77304 whole entry Y71F) above, with F71Y, Y292A counted along it
Experimental: as §2
as §1, with “After 5 min, the uptake was stopped by addition of 500 µL ice-cold uptake buffer followed by immediate centrifugation and washing twice in ice-cold uptake buffer.” left out, “All uptake assay experiments were reproduced at least three times independently and data analyses were performed using GraphPad Prism ver. 5.” left out

[6] = target: T6, YdgR Tyr38Phe (Escherichia coli, UniProt P77304, Y38F); assay: β-Ala-Lys(AMCA) uptake and inhibition assay, YdgR Tyr38Phe
T6 construct: host or cells: E. coli BL21(DE3)pLysS
T6 sequence (P77304 whole entry Y38F): as the sequence (P77304 whole entry Y71F) above, with Y38F, F71Y counted along it
Experimental: as §2
as §1, with “After 5 min, the uptake was stopped by addition of 500 µL ice-cold uptake buffer followed by immediate centrifugation and washing twice in ice-cold uptake buffer.” left out, “All uptake assay experiments were reproduced at least three times independently and data analyses were performed using GraphPad Prism ver. 5.” left out

[7] = target: T7, YjdL Lys117Gln (Escherichia coli, UniProt P39276, K117Q); assay: β-Ala-Lys(AMCA) uptake assay, YjdL Lys117Gln; conditions: 0.2 mM, 5 min, pH 6.5 (Figure 3)
T7 construct: host or cells: E. coli BL21(DE3)pLysS
T7 sequence (P39276 whole entry K117Q): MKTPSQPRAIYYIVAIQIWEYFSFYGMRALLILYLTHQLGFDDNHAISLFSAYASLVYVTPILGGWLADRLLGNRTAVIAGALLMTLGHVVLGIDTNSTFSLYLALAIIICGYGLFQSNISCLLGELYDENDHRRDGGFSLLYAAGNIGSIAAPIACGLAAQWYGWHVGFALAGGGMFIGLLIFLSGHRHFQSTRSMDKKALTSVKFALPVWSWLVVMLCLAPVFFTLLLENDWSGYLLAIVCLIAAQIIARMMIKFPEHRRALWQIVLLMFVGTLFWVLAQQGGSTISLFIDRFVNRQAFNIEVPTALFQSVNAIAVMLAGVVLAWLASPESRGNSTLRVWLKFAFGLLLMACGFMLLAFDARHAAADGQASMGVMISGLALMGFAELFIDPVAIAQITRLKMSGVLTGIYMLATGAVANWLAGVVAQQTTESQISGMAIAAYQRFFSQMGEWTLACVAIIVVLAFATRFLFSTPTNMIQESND
Experimental: as §2
as §1, with “After 5 min, the uptake was stopped by addition of 500 µL ice-cold uptake buffer followed by immediate centrifugation and washing twice in ice-cold uptake buffer.” left out, “All uptake assay experiments were reproduced at least three times independently and data analyses were performed using GraphPad Prism ver. 5.” left out

[8] = target: T8, YjdL Tyr21Arg (Escherichia coli, UniProt P39276, Y21R); assay: β-Ala-Lys(AMCA) uptake assay, YjdL Tyr21Arg; conditions: 0.2 mM, 5 min, pH 6.5 (Figure 3)
T8 construct: host or cells: E. coli BL21(DE3)pLysS
T8 sequence (P39276 whole entry Y21R): as the sequence (P39276 whole entry K117Q) above, with Y21R, Q117K counted along it
Experimental: as §2
as §1, with “After 5 min, the uptake was stopped by addition of 500 µL ice-cold uptake buffer followed by immediate centrifugation and washing twice in ice-cold uptake buffer.” left out, “All uptake assay experiments were reproduced at least three times independently and data analyses were performed using GraphPad Prism ver. 5.” left out

[9] = target: T9, YjdL Gly284Met (Escherichia coli, UniProt P39276, G284M); assay: β-Ala-Lys(AMCA) uptake assay, YjdL Gly284Met; conditions: 0.2 mM, 5 min, pH 6.5 (Figure 3)
T9 construct: host or cells: E. coli BL21(DE3)pLysS
T9 sequence (P39276 whole entry G284M): as the sequence (P39276 whole entry K117Q) above, with Q117K, G284M counted along it
Experimental: as §2
as §1, with “After 5 min, the uptake was stopped by addition of 500 µL ice-cold uptake buffer followed by immediate centrifugation and washing twice in ice-cold uptake buffer.” left out, “All uptake assay experiments were reproduced at least three times independently and data analyses were performed using GraphPad Prism ver. 5.” left out

[10] = test system: YjdL Tyr113Asn; assay: β-Ala-Lys(AMCA) uptake assay, YjdL Tyr113Asn; conditions: 0.2 mM, 5 min, pH 6.5 (Figure 3)
Experimental: as §2
as §1, with “After 5 min, the uptake was stopped by addition of 500 µL ice-cold uptake buffer followed by immediate centrifugation and washing twice in ice-cold uptake buffer.” left out, “All uptake assay experiments were reproduced at least three times independently and data analyses were performed using GraphPad Prism ver. 5.” left out

[11] = 0.2 mM β-Ala-Lys(AMCA), 5 min incubation, pH 6.5, ±SEM, n≥3
[12] = 0.2 mM, 5 min, pH 6.5 (Figure 4)

C[C@H](N)C(=O)N[C@@H](C)C(=O)O [Ala-Ala] (H-Ala-Ala-OH)
IC50 ([1]; WT-YdgR a): 390 ± 40 µM | IC50 ([1]; WT-YdgR b): 1040 ± 60 µM | IC50 [2]: 28100 ± 5000 µM | IC50 [3, 11]: 370 ± 30 µM | IC50 [4]: 150 ± 30 µM | IC50 [5, 11]: 590 ± 50 µM | IC50 ([6]; 0.5 mM β-Ala-Lys(AMCA), 15 min incubation, pH 6.5, ±SEM, n≥3, read-out: IC50 (inhibition of β-Ala-Lys(AMCA) uptake), YdgR Tyr38Phe b): 920 ± 60 µM

C[C@H](N)C(=O)N[C@@H](CCCCN)C(=O)O [Ala-Lys] (H-Ala-Lys-OH)
IC50 [2]: > 50000 µM

C[C@H](NC(=O)[C@@H](N)Cc1ccc(O)cc1)C(=O)O [Tyr-Ala]
IC50 [2]: 24100 ± 2800 µM

β-Ala-Lys-N-7-amino-4-methylcoumarin-3-acetic acid [β-Ala-Lys(AMCA)]
β-Ala-Lys(AMCA) uptake level, YjdL Tyr58Phe ([2]; 0.2 mM, 5 min, pH 6.5 (Figure 3)): 7% | β-Ala-Lys(AMCA) uptake level, YdgR Tyr71Phe [3, 12]: 27% | increase of β-Ala-Lys(AMCA) uptake, YdgR Tyr292Ala [5, 12]: ~4 fold | β-Ala-Lys(AMCA) uptake level, YdgR Tyr38Phe [6, 12]: 10% | β-Ala-Lys(AMCA) uptake level, YjdL Lys117Gln [7]: 9% | β-Ala-Lys(AMCA) uptake level, YjdL Tyr21Arg [8]: 11% | β-Ala-Lys(AMCA) uptake level, YjdL Gly284Met [9]: 20% | increase of β-Ala-Lys(AMCA) uptake, YjdL Tyr113Asn [10]: ~2 fold
